{
  "source": "paper doi:10.1101/2025.04.10.648262",
  "about": "“Time-resolved phenotyping at subcellular resolution reveals shared principles and key trade-offs across antimicrobial peptide activities” (bioRxiv, 2026)",
  "test_system": "E. coli (MG1655)",
  "assay_type": "cell-based, Escherichia coli",
  "description": "For all experiments and E. coli strains, cells were grown in a medium (M9gluCAAT) with M9 salts (33.7 mM Na2HPO4, 22mM KH2PO4, 8.55 mM NaCl, 9.35 mM NH4Cl), 0.2% (w/v) glucose, 0.4% (w/v) casamino acids, 1 mM MgSO4, 0.3 mM CaCl2, 1 μg/mL thiamine, and trace elements (13.4 mM ethylene-diamine-tetra-acetic-acid (EDTA), 3.1 mM FeCl3-6H2O, 0.62 mM ZnCl2, 76 μM CuCl2-2H2O, 42 μM CoCl2-2H2O, 162 μM H3BO3, 8.1 μM MnCl2-4H2O). Prior to every experiment, cells were first inoculated into M9gluCAAT and grown to stationary phase at 37°C. For all assays except the biofilm experiments, the culture was diluted to 1/10,000 or more in fresh medium and grown at 37°C until it reached an optical density at 600 nm (OD) of 0.2–0.4. For the biofilm experiments, cells were grown in M9gluCAAT supplemented with 100 μg/mL ampicillin to maintain the GFP-expressing plasmid. The overnight stationary-phase cultures were then diluted into the same medium to an OD of 0.015. See below for details on biofilm growth.\nExcept for the biofilm experiments, the strains used in this study were derived from MG1655 (ATCC 47076), which was used to estimate the minimum inhibitory concentration (MIC) for all the studied peptides (or peptoids) using a microplate reader (Figure 1A). To detect the timing of outer and inner membrane permeabilization to proteins, strain CJW7845 was constructed to carry two freely diffusing fluorescent proteins: mScarlet-I in the periplasm and mTagBFP2 in the cytoplasm. Construction of CJW7845 was done by transforming pBAD-mTagBFP2 plasmid (Addgene #34632, a gift from Vladislav Verkhusha; ([Subach et al., 2011])) into an E. coli strain expressing a periplasmic mScarlet-I reporter ([Cañas-Duarte 2021]), as previously described ([Chung et al., 1989]). Transformants were restreaked on fresh selection plates and confirmed via microscopy.\nTo determine the minimal inhibitory concentration (MIC) of the selected AMPs against either MG1655 or ATCC 25922 E. coli strains, exponentially growing cells were diluted in fresh medium to an OD = 10^−6 (~500 cells/mL) and mixed 50:50 with titrated AMP concentrations (which were chosen to be over a range that included the MIC) in a 96-well plate (flat bottom with low evaporation lid, 3595, Corning, Arizona, USA). A final OD of 5 × 10^−7 corresponds to ~250 cells/mL. OD curves were sampled every 5 min for a total of 48 h using a microplate reader (BioTek Synergy 2, Agilent Technologies Inc., California, USA). Raw data were exported as a text file and analysed using a custom-written Python script (microplate_reader_analysis.py). To measure maximum growth rates, the log(OD) was fitted using a linear regression over a 12-point moving window (60 min), which provides the instantaneous growth rate (log(OD)/h), from which the global maximum was computed. The MIC was defined as the minimum AMP concentration for which the maximum growth rate was < 0.2 log(OD)/h within the first 20 h of incubation. Each MIC experiment was performed independently at least three times (with at least two technical replicates each), and the mode across all replicates was taken as the final MIC; in the rare cases of a tie, an additional replicate was performed, which was sufficient to resolve it.",
  "key": {"[1]": {"conditions": "E. coli MG1655, M9gluCAAT, 37°C, 20 h, inoculum ~250 cells/mL, mode across three biological replicates"}},
  "note": "Where two headings read alike, the source gives them in different places. Square brackets hold non-standard residues; d marks the D form. Ends that are not written are not given here. Peptide text beside a SMILES is read from it. * marks the point of attachment. 5TAMRA = CN(C)c1ccc2c(c1)Oc1cc(N(C)C)ccc1C21OC(=O)c2cc(C(=O)*)ccc21",
  "data": [
    {"molecule": "CC[C@H](C)[C@H](NC(=O)[C@H](CCCNC(=N)N)NC(=O)[C@@H]1CCCN1C(=O)[C@@H]1CCCN1C(=O)[C@H](CC(C)C)NC(=O)[C@H](CCCNC(=N)N)NC(=O)[C@@H]1CCCN1C(=O)[C@@H]1CCCN1C(=O)[C@H](Cc1ccccc1)NC(=O)[C@H](Cc1ccccc1)NC(=O)[C@@H]1CCCN1C(=O)[C@@H]1CCCN1C(=O)[C@@H]1CCCN1C(=O)[C@H](CCCNC(=N)N)NC(=O)[C@@H]1CCCN1C(=O)[C@H](CCCNC(=N)N)NC(=O)[C@@H]1CCCN1C(=O)[C@H](CC(C)C)NC(=O)[C@H](Cc1ccc(O)cc1)NC(=O)[C@@H]1CCCN1C(=O)[C@@H]1CCCN1C(=O)[C@H](CCCNC(=N)N)NC(=O)[C@@H]1CCCN1C(=O)[C@H](CCCNC(=N)N)NC(=O)[C@H](CCCNC(=N)N)NC(=O)[C@H](CCCNC(=N)N)NC(=O)c1ccc2c(c1)C(=O)OC21c2ccc(N(C)C)cc2Oc2cc(N(C)C)ccc21)C(=O)N1CCC[C@H]1C(=O)N1CCC[C@H]1C(=O)NCC(=O)N[C@@H](Cc1ccccc1)C(=O)N1CCC[C@H]1C(=O)N1CCC[C@H]1C(=O)N[C@@H](CCCNC(=N)N)C(=O)N[C@@H](Cc1ccccc1)C(=O)N1CCC[C@H]1C(=O)N1CCC[C@H]1C(=O)N[C@@H](CCCNC(=N)N)C(=O)N[C@@H](Cc1ccccc1)C(=O)N1CCC[C@H]1C(N)=O", "note": "[5-TAMRA-PR-39] (5TAMRA-RRRPRPPYLPRPRPPPFFPPRLPPRIPPGFPPRFPPRFP-NH2; C-terminus assumed)", "values": [
      {"measurement": "MIC (mode MIC) of 5-TAMRA-labeled AMP derivatives", "setting": "MG1655, 20 h", "value": 2, "unit": "µM"}
    ]},
    {"molecule": "CC[C@@H](C)[C@@H](NC(=O)[C@@H](C)NC(=O)[C@@H](CCCNC(=N)N)NC(=O)[C@@H](Cc1c[nH]c2ccccc12)NC(=O)[C@@H](CCC(N)=O)NC(=O)[C@H](NC(=O)c1ccc2c(c1)C(=O)OC21c2ccc(N(C)C)cc2Oc2cc(N(C)C)ccc21)C(C)C)C(=O)N[C@H](CCCNC(=N)N)C(=O)N[C@@H](C(=O)N[C@H](CCCNC(=N)N)C(=O)N[C@@H](C(=O)N[C@@H](C(=O)N[C@H](CCCNC(=N)N)C(N)=O)[C@H](C)CC)C(C)C)C(C)C", "note": "[5-TAMRA-DJK-5] (5TAMRA-[dV][dQ][dW][dR][dA][dI][dR][dV][dR][dV][dI][dR]-NH2; C-terminus assumed)", "values": [
      {"measurement": "MIC (mode MIC) of 5-TAMRA-labeled AMP derivatives", "setting": "MG1655, 20 h", "value": 2.5, "unit": "µM"}
    ]},
    {"molecule": "RSIRRPRLPRPRVPRPYIPPRIPRPVLPPPRFPIPRFPRGR [CamBac, camel bactenecin]", "values": [
      {"measurement": "MIC (mode MIC)", "setting": "MG1655, 20 h", "value": 0.5, "unit": "µM"}
    ]},
    {"molecule": "CN[C@@H]1[C@H](O)[C@H](NC)[C@H]2O[C@@]3(O)C(=O)C[C@@H](C)O[C@H]3O[C@@H]2[C@H]1O", "note": "[Spect, spectinomycin]", "values": [
      {"measurement": "MIC (mode MIC), antibiotics", "setting": "[1]", "value": 64, "unit": "µg/mL"}
    ]},
    {"molecule": "CO[C@H]1/C=C/O[C@@]2(C)Oc3c(C)c(O)c4c(O)c(c(/C=N/N5CCN(C)CC5)c(O)c4c3C2=O)NC(=O)/C(C)=C\\C=C\\[C@H](C)[C@H](O)[C@@H](C)[C@@H](O)[C@@H](C)[C@H](OC(C)=O)[C@@H]1C", "note": "[Rif, rifampicin]", "values": [
      {"measurement": "MIC (mode MIC), antibiotics", "setting": "[1]", "value": 16, "unit": "µg/mL"}
    ]},
    {"molecule": "CC[C@H](C)[C@H](NC(=O)[C@H](CCCNC(=N)N)NC(=O)[C@H](CCCNC(=N)N)NC(=O)c1ccc2c(c1)C(=O)OC21c2ccc(N(C)C)cc2Oc2cc(N(C)C)ccc21)C(=O)N[C@@H](CCCNC(=N)N)C(=O)N1CCC[C@H]1C(=O)N[C@@H](CCCNC(=N)N)C(=O)N1CCC[C@H]1C(=O)N1CCC[C@H]1C(=O)N[C@@H](CCCNC(=N)N)C(=O)N[C@@H](CC(C)C)C(=O)N1CCC[C@H]1C(=O)N[C@@H](CCCNC(=N)N)C(=O)N1CCC[C@H]1C(=O)N[C@@H](CCCNC(=N)N)C(=O)N1CCC[C@H]1C(=O)N[C@@H](CCCNC(=N)N)C(=O)N1CCC[C@H]1C(=O)N[C@@H](CC(C)C)C(=O)N1CCC[C@H]1C(=O)N[C@@H](Cc1ccccc1)C(=O)N1CCC[C@H]1C(=O)N[C@@H](CCCNC(=N)N)C(=O)N1CCC[C@H]1C(=O)NCC(=O)N1CCC[C@H]1C(=O)N[C@@H](CCCNC(=N)N)C(=O)N1CCC[C@H]1C(=O)N[C@H](C(=O)N1CCC[C@H]1C(=O)N[C@@H](CCCNC(=N)N)C(=O)N1CCC[C@H]1C(=O)N[C@@H](CC(C)C)C(=O)N1CCC[C@H]1C(=O)N[C@@H](Cc1ccccc1)C(=O)N1CCC[C@H]1C(=O)O)[C@@H](C)CC", "note": "[5-TAMRA-Bac7] (5TAMRA-RRIRPRPPRLPRPRPRPLPFPRPGPRPIPRPLPFP-OH; C-terminus assumed)", "values": [
      {"measurement": "MIC (mode MIC) of 5-TAMRA-labeled AMP derivatives", "setting": "MG1655, 20 h", "value": 0.6, "unit": "µM"}
    ]},
    {"molecule": "GLLRKGGEKIGEKLKKIGQKIKNFFQKLVPQPEQ [CRAMP]", "values": [
      {"measurement": "MIC (mode MIC)", "setting": "E. coli MG1655, M9gluCAAT, 37°C, 20 h, inoculum ~250 cells/mL, max growth rate < 0.2 log(OD)/h, mode across three biological replicates with two technical replicates each", "value": 4, "unit": "µM"}
    ]},
    {"molecule": "CC[C@H](C)[C@H](NC(=O)CNC(=O)[C@H](CC(=O)O)NC(=O)[C@H](CCCNC(=N)N)NC(=O)[C@@H](NC(=O)[C@H](CC(N)=O)NC(=O)[C@H](CCC(N)=O)NC(=O)CNC(=O)[C@@H](NC(=O)[C@H](CCCCN)NC(=O)[C@H](CCC(=O)O)NC(=O)[C@@H](NC(=O)[C@H](CCCCN)NC(=O)[C@H](CCCCN)NC(=O)[C@H](Cc1ccccc1)NC(=O)[C@H](CC(C)C)NC(=O)[C@H](CCCCN)NC(=O)[C@H](Cc1c[nH]c2ccccc12)NC(=O)[C@H](CCCCN)NC(=O)c1ccc2c(c1)C(=O)OC21c2ccc(N(C)C)cc2Oc2cc(N(C)C)ccc21)[C@@H](C)CC)C(C)C)[C@@H](C)CC)C(=O)N[C@H](C(=O)N[C@@H](CCCCN)C(=O)N[C@@H](C)C(=O)NCC(=O)N1CCC[C@H]1C(=O)N[C@@H](C)C(=O)N[C@H](C(=O)N[C@@H](C)C(=O)N[C@H](C(=O)N[C@H](C(=O)NCC(=O)N[C@@H](CCC(N)=O)C(=O)N[C@@H](C)C(=O)N[C@H](C(=O)N[C@@H](CCC(N)=O)C(=O)N[C@H](C(=O)N[C@@H](C)C(=O)N[C@@H](CCCCN)C(N)=O)[C@@H](C)CC)[C@@H](C)O)C(C)C)C(C)C)C(C)C)[C@@H](C)CC", "note": "[5-TAMRA-CecA] (5TAMRA-KWKLFKKIEKVGQNIRDGIIKAGPAVAVVGQATQIAK-NH2; C-terminus assumed)", "values": [
      {"measurement": "MIC (mode MIC) of 5-TAMRA-labeled AMP derivatives", "setting": "MG1655, 20 h", "value": 2, "unit": "µM"}
    ]},
    {"molecule": "GIGKFLHSAKKFGKAFVGEIMNS [Mag2, magainin-2]", "values": [
      {"measurement": "MIC (mode MIC)", "setting": "MG1655, 20 h", "value": 40, "unit": "µM"}
    ]},
    {"molecule": "CC[C@H](C)[C@H](NC(=O)[C@H](CCCCN)NC(=O)[C@H](CCC(=O)O)NC(=O)[C@H](CCCCN)NC(=O)[C@H](CO)NC(=O)[C@H](CCCCN)NC(=O)[C@H](CCCNC(=N)N)NC(=O)[C@H](Cc1ccccc1)NC(=O)[C@H](Cc1ccccc1)NC(=O)[C@H](CC(=O)O)NC(=O)CNC(=O)[C@H](CC(C)C)NC(=O)[C@H](CC(C)C)NC(=O)c1ccc2c(c1)C(=O)OC21c2ccc(N(C)C)cc2Oc2cc(N(C)C)ccc21)C(=O)NCC(=O)N[C@@H](CCCCN)C(=O)N[C@@H](CCC(=O)O)C(=O)N[C@@H](Cc1ccccc1)C(=O)N[C@@H](CCCCN)C(=O)N[C@@H](CCCNC(=N)N)C(=O)N[C@H](C(=O)N[C@H](C(=O)N[C@@H](CCC(N)=O)C(=O)N[C@@H](CCCNC(=N)N)C(=O)N[C@H](C(=O)N[C@@H](CCCCN)C(=O)N[C@@H](CC(=O)O)C(=O)N[C@@H](Cc1ccccc1)C(=O)N[C@@H](CC(C)C)C(=O)N[C@@H](CCCNC(=N)N)C(=O)N[C@@H](CC(N)=O)C(=O)N[C@@H](CC(C)C)C(=O)N[C@H](C(=O)N1CCC[C@H]1C(=O)N[C@@H](CCCNC(=N)N)C(=O)N[C@H](C(=O)N[C@@H](CCC(=O)O)C(=O)N[C@@H](CO)C(=O)O)[C@@H](C)O)C(C)C)[C@@H](C)CC)C(C)C)[C@@H](C)CC", "note": "[5-TAMRA-LL-37]", "values": [
      {"measurement": "MIC (mode MIC) of 5-TAMRA-labeled AMP derivatives", "setting": "[1]", "value": 2, "unit": "µM"}
    ]},
    {"molecule": "RRIPFWPPNWPGPWLPPWSPPDFRIPRILRKR [Tur1B]", "values": [
      {"measurement": "MIC (mode MIC)", "setting": "MG1655, 20 h", "value": 8, "unit": "µM"}
    ]}
  ]
}
